Data on 41 compounds can be found in patent US6342516B1, “Phenylazole compounds, process for producing the same and drugs for hyperlipemia” (Nippon Soda Co., Ltd., priority 1998, dated 2002).

Structures are written as SMILES.

The test system of the first assay is Lipid peroxidation activity in rat liver microsome. The assay is described as follows: Effect on lipid peroxidation in vitro (rat liver microsome, thiobarbituric acid method). The assay is classed as biochemical. The following applies: rat liver microsomes, 500 μM cystein and 5 μM ferrous(II) sulfate, malonaldehyde by thiobarbituric acid method; read-out: Lipid Antiperoxidation Activity 50% Inhibition Concentration (IC50). On the procedure: Pharmacological Test Example 2: Effect on lipid peroxidation in vitro
Lipid peroxidation activity in rat liver microsome was determined according to the method of Malvy et al. (Malvy et al., Biochemical and Biophysical Research Communications, 95, 734-737 (1980)). More particularly, 500 μM cystein and 5 μM ferrous(II) sulfate were incubated with rat liver microsomes, and the amount of malonaldehyde produced due to the decomposition of lipid peroxide was determined according to thiobarbituric acid method. The concentration of the compounds required to inhibit the formation of lipid peroxide by 50% (IC50) was calculated.
For `Cc1c(C)c2c(c(C)c1O)CCC(C)(CCC(=O)Nc1ccc(-n3ccnc3)cc1)O2` (racemic) [3-5], the IC50 worked out at 1300 nM.

Turning to `Cc1c(C)c2c(c(C)c1O)CCC(C)(C(=O)NCCCCCC(=O)Nc1ccc(-n3ccnc3)cc1)O2` (racemic) [3-8], the IC50 stood at 3800 nM.

For `Cc1c(C)c2c(c(C)c1O)CC(C)(CCCCC(=O)Nc1ccc(-n3ccnc3)cc1)O2` (racemic) [3-12], the IC50 amounted to 2500 nM.

With `CC(=O)Oc1c(C)c(C)c2c(c1C)CC(C)(C(=O)Nc1ccc(-n3ccnc3)cc1)O2` (racemic) [3-13], the IC50 stood at 2800 nM.

Regarding `Cc1c(C)c2c(c(C)c1O)CC(C)(C=CC=CC(=O)Nc1ccc(-n3ccnc3)cc1)O2` (racemic) [3-16], the IC50 stood at 2100 nM.

A further assay relates to cholesterol-fed hamsters. The assay is described as follows: Effect on serum lipids of cholesterol-fed hamsters (serum total cholesterol and triglyceride reduction rate). The following applies: cholesterol-fed Syrian hamsters, oral once a day for 5 days, dose 12.5 mg/kg. Format: in vivo. On the procedure: Pharmacological Test Example 1: Effect on serum lipids of cholesterol-fed hamsters
Syrian hamsters (Std:Syrian, Male, 4 weeks old) were freely fed with chow containing 1% cholesterol and 10% coconut oil for 3 weeks ad libitum.
At the last week of feeding, each of the test compounds was dissolved or suspended in either 0.1% hydrochloric acid solution or 1% polyethylene-hydrogenated castor oil (NIKKOL HCO-60) solution and was orally administrated to hamsters once a day for 5 days. For the hamsters of the control group, only the solvent was orally administered. Then, blood was collected from the abdominal vein under the condition of anesthesia with pentobarbital at 2-4 hours after the last administration, and the serum in the blood was separated. The serum total cholesterol value and the serum triglyceride value were determined by using autobiochemical analyzer with analizing kits, and reduction rate of the serum lipids was determined according to the equation indicated below based on the analyzed values for respective hamster groups.
Serum lipids reduction rate (%)=(Amount of serum lipids of the control group−Amount of serum lipids of the group administrated with the test compound)/Amount of serum lipids of the control group×100
For the compound `CC(C)c1cc(C(=O)Nc2ccc(-n3ccnc3)cc2)cc(O)n1` [4-28], the “Serum lipids reduction rate comparing to Control group (%), Means of 3 animals: Total cholesterol” value worked out at 24% and the “Serum lipids reduction rate comparing to Control group (%), Means of 3 animals: Triglyceride” value came out at 34%.

Turning to `O=C(Nc1ccc(-n2ccnc2)cc1)c1cnccn1` [4-33], the “Serum lipids reduction rate comparing to Control group (%), Means of 3 animals: Total cholesterol” value was 35% and the “Serum lipids reduction rate comparing to Control group (%), Means of 3 animals: Triglyceride” value is 44%.

`O=C(Nc1ccc(-n2ccnc2)cc1)c1cnc2ccccc2n1` [4-37]: the “Serum lipids reduction rate comparing to Control group (%), Means of 3 animals: Total cholesterol” value is 26% and the “Serum lipids reduction rate comparing to Control group (%), Means of 3 animals: Triglyceride” value was 25%.

On to `O=C(Nc1ccc(-n2ccnc2)cc1)c1ccc[nH]1` [4-38], for which the “Serum lipids reduction rate comparing to Control group (%), Means of 3 animals: Total cholesterol” value came to 32% and the “Serum lipids reduction rate comparing to Control group (%), Means of 3 animals: Triglyceride” value turned out to be 31%.

On to `O=C(COc1cnc2ccccc2n1)Nc1ccc(-n2ccnc2)cc1` [4-79], for which the “Serum lipids reduction rate comparing to Control group (%), Means of 3 animals: Total cholesterol” value is recorded as 29% and the “Serum lipids reduction rate comparing to Control group (%), Means of 3 animals: Triglyceride” value amounted to 45%.

For the compound `O=C(COc1nc2c(c(C(F)(F)F)n1)CCO2)Nc1ccc(-n2ccnc2)cc1` [4-81], the “Serum lipids reduction rate comparing to Control group (%), Means of 3 animals: Total cholesterol” value was 22% and the “Serum lipids reduction rate comparing to Control group (%), Means of 3 animals: Triglyceride” value stood at 43%.

`Cn1c(CCC(=O)Nc2ccc(-n3ccnc3)cc2)nc2ccccc21` [4-97]: the “Serum lipids reduction rate comparing to Control group (%), Means of 3 animals: Total cholesterol” value was determined as 26% and the “Serum lipids reduction rate comparing to Control group (%), Means of 3 animals: Triglyceride” value was determined as 33%.

The assay is the same for the next values; noted with them: cholesterol-fed Syrian hamsters, oral once a day for 5 days, dose 25 mg/kg.
With `O=C(Nc1ccc(-n2ccnc2)cc1)c1ccncc1` [4-27], the “Serum lipids reduction rate comparing to Control group (%), Means of 3 animals: Total cholesterol” value is on record as 40% and the “Serum lipids reduction rate comparing to Control group (%), Means of 3 animals: Triglyceride” value was 46%.

Regarding `O=C(Nc1ccc(-n2ccnc2)cc1)c1cc2ccccc2o1` [4-31], the “Serum lipids reduction rate comparing to Control group (%), Means of 3 animals: Total cholesterol” value is 46% and the “Serum lipids reduction rate comparing to Control group (%), Means of 3 animals: Triglyceride” value was 59%.

For the compound `O=C(Nc1ccc(-n2ccnc2)cc1)C1CCOCC1` [4-32], the “Serum lipids reduction rate comparing to Control group (%), Means of 3 animals: Total cholesterol” value was determined as 58% and the “Serum lipids reduction rate comparing to Control group (%), Means of 3 animals: Triglyceride” value was 68%.

Take `O=C(Nc1ccc(-n2ccnc2)cc1)c1n[nH]c2ccccc12` [4-34]: the “Serum lipids reduction rate comparing to Control group (%), Means of 3 animals: Total cholesterol” value is recorded as 37% and the “Serum lipids reduction rate comparing to Control group (%), Means of 3 animals: Triglyceride” value came out at 39%.

For `Cn1cccc1C(=O)Nc1ccc(-n2ccnc2)cc1` [4-39], the “Serum lipids reduction rate comparing to Control group (%), Means of 3 animals: Total cholesterol” value was 25% and the “Serum lipids reduction rate comparing to Control group (%), Means of 3 animals: Triglyceride” value was 45%.

For the compound `O=C(Nc1ccc(-n2ccnc2)cc1)c1ccc2ccccc2n1` [4-41], the “Serum lipids reduction rate comparing to Control group (%), Means of 3 animals: Total cholesterol” value is reported as 50% and the “Serum lipids reduction rate comparing to Control group (%), Means of 3 animals: Triglyceride” value is 67%.

Consider `O=C(Nc1ccc(-n2ccnc2)cc1)c1ccc2ccc(O)nc2c1` [4-44], for which the “Serum lipids reduction rate comparing to Control group (%), Means of 3 animals: Total cholesterol” value is reported as 21% and the “Serum lipids reduction rate comparing to Control group (%), Means of 3 animals: Triglyceride” value amounted to 31%.

As to `O=C1CCC(C(=O)Nc2ccc(-n3ccnc3)cc2)=NN1` [4-46], the “Serum lipids reduction rate comparing to Control group (%), Means of 3 animals: Total cholesterol” value worked out at 52% and the “Serum lipids reduction rate comparing to Control group (%), Means of 3 animals: Triglyceride” value is reported as 45%.

For `O=C(Nc1ccc(-n2ccnc2)cc1)c1ccco1` [4-48], the “Serum lipids reduction rate comparing to Control group (%), Means of 3 animals: Total cholesterol” value was determined as 76% and the “Serum lipids reduction rate comparing to Control group (%), Means of 3 animals: Triglyceride” value was 85%.

Consider `Cc1c(C(=O)Nc2ccc(-n3ccnc3)cc2)oc2ccccc12` [4-62], for which the “Serum lipids reduction rate comparing to Control group (%), Means of 3 animals: Total cholesterol” value was 42% and the “Serum lipids reduction rate comparing to Control group (%), Means of 3 animals: Triglyceride” value was determined as 59%.

As for `COc1cccc2cc(C(=O)Nc3ccc(-n4ccnc4)cc3)oc12` [4-63], the “Serum lipids reduction rate comparing to Control group (%), Means of 3 animals: Total cholesterol” value is 26% and the “Serum lipids reduction rate comparing to Control group (%), Means of 3 animals: Triglyceride” value came to 29%.

For the compound `O=C(Nc1ccc(-n2ccnc2)cc1)c1cnc2ccccc2c1` [4-66], the “Serum lipids reduction rate comparing to Control group (%), Means of 3 animals: Total cholesterol” value came to 55% and the “Serum lipids reduction rate comparing to Control group (%), Means of 3 animals: Triglyceride” value is listed as 66%.

For `O=C(Nc1ccc(-n2ccnc2)cc1)C1COc2ccccc2O1` (centres unmarked) [4-70], the “Serum lipids reduction rate comparing to Control group (%), Means of 3 animals: Total cholesterol” value was determined as 34% and the “Serum lipids reduction rate comparing to Control group (%), Means of 3 animals: Triglyceride” value was 48%.

On to `Cc1ccc2ccc(C(=O)Nc3ccc(-n4ccnc4)cc3)cn12` [4-71], for which the “Serum lipids reduction rate comparing to Control group (%), Means of 3 animals: Total cholesterol” value turned out to be 45% and the “Serum lipids reduction rate comparing to Control group (%), Means of 3 animals: Triglyceride” value is listed as 62%.

As for `O=C(CC1CCc2sccc2C1=O)Nc1ccc(-n2ccnc2)cc1` (centres unmarked) [4-72], the “Serum lipids reduction rate comparing to Control group (%), Means of 3 animals: Total cholesterol” value is reported as 37% and the “Serum lipids reduction rate comparing to Control group (%), Means of 3 animals: Triglyceride” value came to 53%.

For the compound `O=C(COc1ccc2ncccc2c1)Nc1ccc(-n2ccnc2)cc1` [4-73], the “Serum lipids reduction rate comparing to Control group (%), Means of 3 animals: Total cholesterol” value turned out to be 34% and the “Serum lipids reduction rate comparing to Control group (%), Means of 3 animals: Triglyceride” value is 50%.

Consider `O=C(COc1ccc2c(c1)OCO2)Nc1ccc(-n2ccnc2)cc1` [4-80], for which the “Serum lipids reduction rate comparing to Control group (%), Means of 3 animals: Total cholesterol” value came out at 40% and the “Serum lipids reduction rate comparing to Control group (%), Means of 3 animals: Triglyceride” value is 52%.

As for `O=C(CSc1cnccn1)Nc1ccc(-n2ccnc2)cc1` [4-87], the “Serum lipids reduction rate comparing to Control group (%), Means of 3 animals: Total cholesterol” value is on record as 34% and the “Serum lipids reduction rate comparing to Control group (%), Means of 3 animals: Triglyceride” value was determined as 37%.

Consider `Cc1cc(=O)oc2cc(OCC(=O)Nc3ccc(-n4ccnc4)cc3)ccc12` [4-88], for which the “Serum lipids reduction rate comparing to Control group (%), Means of 3 animals: Total cholesterol” value came to 39% and the “Serum lipids reduction rate comparing to Control group (%), Means of 3 animals: Triglyceride” value turned out to be 53%.

`O=C(CCc1cccnc1)Nc1ccc(-n2ccnc2)cc1` [4-90]: the “Serum lipids reduction rate comparing to Control group (%), Means of 3 animals: Total cholesterol” value amounted to 22% and the “Serum lipids reduction rate comparing to Control group (%), Means of 3 animals: Triglyceride” value was determined as 36%.

As to `O=C(Cn1c(=O)ccc2ccccc21)Nc1ccc(-c2ccn[nH]2)cc1` [4-91], the “Serum lipids reduction rate comparing to Control group (%), Means of 3 animals: Total cholesterol” value worked out at 37% and the “Serum lipids reduction rate comparing to Control group (%), Means of 3 animals: Triglyceride” value came out at 48%.

With `O=C(CN1C(=O)COc2ccccc21)Nc1ccc(-c2cn[nH]c2)cc1` [4-92], the “Serum lipids reduction rate comparing to Control group (%), Means of 3 animals: Total cholesterol” value is reported as 29% and the “Serum lipids reduction rate comparing to Control group (%), Means of 3 animals: Triglyceride” value worked out at 34%.

For `O=C(COc1ccc2ccccc2n1)Nc1ccc(-n2ccnc2)cc1` [4-96], the “Serum lipids reduction rate comparing to Control group (%), Means of 3 animals: Total cholesterol” value was determined as 36% and the “Serum lipids reduction rate comparing to Control group (%), Means of 3 animals: Triglyceride” value turned out to be 50%.

In the case of `COc1cc2cc(CCC(=O)Nc3ccc(-n4ccnc4)cc3)n(S(C)(=O)=O)c2cc1OC` [4-100], the “Serum lipids reduction rate comparing to Control group (%), Means of 3 animals: Total cholesterol” value amounted to 26% and the “Serum lipids reduction rate comparing to Control group (%), Means of 3 animals: Triglyceride” value stood at 33%.

For `O=C(COc1ncccn1)Nc1ccc(-n2ccnc2)cc1` [4-101], the “Serum lipids reduction rate comparing to Control group (%), Means of 3 animals: Total cholesterol” value is on record as 41% and the “Serum lipids reduction rate comparing to Control group (%), Means of 3 animals: Triglyceride” value is listed as 38%.

For the compound `O=C(COc1nccc(C(F)(F)F)n1)Nc1ccc(-n2ccnc2)cc1` [4-103], the “Serum lipids reduction rate comparing to Control group (%), Means of 3 animals: Total cholesterol” value worked out at 35% and the “Serum lipids reduction rate comparing to Control group (%), Means of 3 animals: Triglyceride” value worked out at 46%.

As for `O=C(CCOC1CCOC1)Nc1ccc(-n2ccnc2)cc1` (centres unmarked) [4-104], the “Serum lipids reduction rate comparing to Control group (%), Means of 3 animals: Total cholesterol” value is 25% and the “Serum lipids reduction rate comparing to Control group (%), Means of 3 animals: Triglyceride” value was determined as 38%.

Regarding `O=C(Nc1ccc(-n2ccnc2)cc1)c1cc2cc(Cl)ccc2[nH]1` [Compound No. 4-8], the “Serum lipids reduction rate comparing to Control group (%), Means of 3 animals: Total cholesterol” value amounted to 37% and the “Serum lipids reduction rate comparing to Control group (%), Means of 3 animals: Triglyceride” value came out at 73%.

Turning to `O=C(COc1cccnc1)Nc1ccc(-n2ccnc2)cc1` [Compound No. 4-85], the “Serum lipids reduction rate comparing to Control group (%), Means of 3 animals: Total cholesterol” value is listed as 39% and the “Serum lipids reduction rate comparing to Control group (%), Means of 3 animals: Triglyceride” value is given as 44%.
